Patent US20240090503A1, “FUNGICIDAL OXADIAZOLES AND THEIR MIXTURES” (FMC CORPORATION, priority 2020, published 2024)
Marks after values point to notes of the source that are not given here.

Experiments:
Type in all cases: in vivo
[1] = test system: Phakopsora pachyrhizi (the causal agent of Asian soybean rust); assay: Test A: preventive spray on soybean seedlings, Asian soybean rust, visual disease rating; conditions: soybean seedlings
In short: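 Preventive test: soybean seedlings received a run-off spray of compound suspended at the set ppm in 50/50 acetone/water plus 250 ppm PEG400, and one day later a P. pachyrhizi spore inoculum. Visual scoring (0 none to 100 full disease control) followed 24 h saturated incubation and 8 days' growth chamber, both at 22° C.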

[2] = test system: Zymoseptoria tritici (the causal agent of wheat leaf blotch); assay: Test B: preventive spray on wheat seedlings, wheat leaf blotch, visual disease rating; conditions: wheat seedlings
In short: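 This is a preventive test: spray application preceded Zymoseptoria tritici spore inoculation by one day. Test suspensions were in acetone/water with 250 ppm PEG400 surfactant, at the listed ppm rate. After 48 h saturated humidity at 24° C and 17 days at 20° C, visual ratings scored control from 0 to 100%.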

[3] = test system: Puccinia recondita f. sp. tritici (the causal agent of wheat leaf rust); assay: Test C: preventive spray on wheat seedlings, wheat leaf rust, visual disease rating; conditions: wheat seedlings
In short: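 Wheat seedlings sprayed to run-off with compound in acetone/water (50/50) with 250 ppm PEG400, then inoculated with spores the following day. After 24 h saturated humidity at 20° C. and 6 days in growth chamber at 20° C., disease rated visually as % control relative to untreated controls.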

[4] = test suspension 10 ppm, 100 = 100% disease control, 0 = no control
[5] = 10 ppm test suspension, 100 = 100% disease control, 0 = no control
[6] = 250 ppm test suspension, 100 = 100% disease control

| Structure (SMILES) | Test A disease control rating [1, 4] | Test B disease control rating ([2]; test suspension 250 ppm) | Test C disease control rating ([3]; test suspension 10 ppm) | further results |
| --- | --- | --- | --- | --- |
| O=C(NCc1nccs1)c1coc(Cc2ccc(-c3noc(C(F)(F)F)n3)cc2)n1 [compound 277] | 100% | 99* % | 100% |  |
| O=C(NCCCC(F)(F)F)c1coc(Cc2ccc(-c3noc(C(F)(F)F)n3)cc2)n1 [compound 398] |  |  |  | Test A disease control rating [1, 5]: 100%; Test B disease control rating [2, 6]: 80* %; Test C disease control rating [3, 5]: 97% |
| FC(F)(F)c1nc(-c2ccc(OCc3ccon3)cc2)no1 [compound 318] | 0% | 11* % | 0% |  |
| FC(F)(F)c1nc(-c2ccc(Cn3ccc(-c4ccccc4Cl)n3)cc2)no1 [compound 142] |  | 57% |  | Test A disease control rating ([1]; test suspension 250 ppm): 100%; Test C disease control rating ([3]; test suspension 250 ppm): 100% |
| C=C(C)COC(=O)c1cnn(Cc2ccc(-c3noc(C(F)(F)F)n3)cc2)c1 [compound 170] | 100% |  | 100% | Test B disease control rating ([2]; test suspension 100 ppm (** next to rating)): 97** % |
| O=C(NCCn1cccn1)c1coc(COc2ccc(-c3noc(C(F)(F)F)n3)cc2)n1 [compound 466] |  |  |  | Test A disease control rating [1, 5]: 100%; Test B disease control rating [2, 6]: 3* %; Test C disease control rating [3, 5]: 55% |
| COC(=O)c1csc(Cc2ccc(-c3noc(C(F)(F)F)n3)cc2)c1 [Compound 455] |  |  |  | Test A disease control rating [1, 5]: 100%; Test B disease control rating [2, 6]: 66* %; Test C disease control rating [3, 5]: 0% |
| CC(C)(NC(=O)c1coc(Cc2ccc(-c3noc(C(F)(F)F)n3)cc2)n1)C(F)(F)F [compound 331] | 99% | 97* % | 94% |  |
| COC(CNC(=O)c1coc(Cc2ccc(-c3noc(C(F)(F)F)n3)cc2)n1)OC [compound 278] | 100% | 98* % | 100% |  |
| Cc1cc(C)n(Cc2ccc(-c3noc(C(F)(F)F)n3)cc2)n1 [compound 145] |  | 0% |  | Test A disease control rating ([1]; test suspension 250 ppm): 100%; Test C disease control rating ([3]; test suspension 250 ppm): 100% |
| CCOC(=O)c1cnn(C(C)c2ccc(-c3noc(C(F)(F)F)n3)cc2)c1 (stereo not drawn) [Compound 2, ethyl 1-[1-[4-[5-(trifluoromethyl)-1,2,4-oxadiazol-3-yl]phenyl]ethyl]-1H-pyrazole-4-carboxylate] |  |  |  | pest or weed control at 10 µg/mL ([1]; Phakopsora pachyrhizi, 216 h, test suspension 10 ppm, 100 = 100% disease control, 0 = no control, read-out: Test A disease control rating): 100%; pest or weed control at 100 µg/mL ([2]; Zymoseptoria tritici, 456 h, test suspension 100 ppm (** next to rating), read-out: Test B disease control rating): 98%; pest or weed control at 10 µg/mL ([3]; Puccinia recondita, 168 h, test suspension 10 ppm, read-out: Test C disease control rating): 99% |
| O=C(NC1CC1)c1coc(Cc2ccc(-c3noc(C(F)(F)F)n3)cc2)n1 [compound 260] | 100% | 47* % | 100% |  |
| C=CCOC(=O)c1cnn(CCCc2ccc(-c3noc(C(F)(F)F)n3)cc2)c1 [compound 373] |  | 99* % |  | Test A disease control rating ([1]; test suspension 250 ppm): 100%; Test C disease control rating ([3]; test suspension 250 ppm): 100% |
| O=C(c1coc(Cc2ccc(-c3noc(C(F)(F)F)n3)cc2)n1)N1CCOCC1 [Compound 263] | 100% | 95* % | 94% |  |
| Cn1c(C(F)(F)F)nn(CCCc2ccc(-c3noc(C(F)(F)F)n3)cc2)c1=O [compound 240] |  | 4% |  | Test A disease control rating ([1]; test suspension 250 ppm): 100%; Test C disease control rating ([3]; test suspension 250 ppm): 100% |
| CCOC(=O)c1csc(COc2ccc(-c3noc(C(F)(F)F)n3)cc2)n1 [compound 404] |  |  |  | Test A disease control rating [1, 5]: 0%; Test B disease control rating [2, 6]: 0* %; Test C disease control rating [3, 5]: 68% |
